# Measured values from US11926645B2, “Compounds and methods for treatment of viral infections” (priority 2020, dated 2024).
# Read-outs that look alike come from different tables or passages of the source.
# How the values were obtained:
# Assay type in all cases: cell-based
# SARS-CoV-2-Nluc viruses = assay: microbe, parasite or virus in culture
# in vitro = details: human
# Protocol: The cytotoxicity of compounds was determined in A549-hACE2 cells in the following manner. Compounds (200 nL) were spotted onto 384-well Grenier plates prior to seeding 5000 A549-hACE2 cells/well in a volume of 40 μL culture medium. The plates were incubated at 37° C. for 48 hours with 5% CO2. On day 2, 40 μL of CellTiter-Glo (Promega) was added and mixed 5 times.
# RSV strain A2 = assay: RSV antiviral assay (Hep2), EC50-Hep2/B1-384; details: human respiratory syncytial virus, HEp-2, 96 h; Hep2 cells, 4 days, Cell-Titer Glo
# [1] = system: RSV-Fluc (Respiratory Syncytial virus strain A2 containing the firefly luciferase reporter); assay: microbe, parasite or virus in culture; details: human respiratory syncytial virus, 72 h, NHBE cells, three days
# [2] = Severe acute respiratory syndrome coronavirus 2, 48 h; read-out: SARS-CoV2 EC50
# [3] = Severe acute respiratory syndrome coronavirus 2, 48 h, read-out: SARS-CoV2 EC50
Compound,EC50 (SARS-CoV-2-Nluc viruses; [2]) [µM],CC50 at 48 h (in vitro) [µM],EC50 (RSV strain A2) [µM],EC50 [1] [µM],"CC50 (in vitro; 48 hours, CellTiter-Glo, read-out: A549-hACE2 CC50) [µM]",EC50 (SARS-CoV-2-Nluc viruses; [3]) [µM]
"CCCC(=O)OC[C@H]1O[C@@](C#N)(c2ccc3c(N)ncnn23)[C@H](O)[C@@H]1O [Compound 25, ((2R,3S,4R,5R)-5-(4-aminopyrrolo[2,1-f][1,2,4]triazin-7-yl)-5-cyano-3,4-dihydroxytetrahydrofuran-2-yl)methyl butyrate]",1.22,> 10,0.225,0.601,,
"N#C[C@@]1(c2ccc3c(N)ncnn23)O[C@H](COC(=O)C2CCC2)[C@@H](O)[C@H]1O [Compound 26, ((2R,3S,4R,5R)-5-(4-aminopyrrolo[2,1-f][1,2,4]triazin-7-yl)-5-cyano-3,4-dihydroxytetrahydrofuran-2-yl)methyl cyclobutanecarboxylate]",1.19,> 10,0.337,1.08,,
"CC(C)C(=O)O[C@H]1[C@@H](OC(=O)C(C)C)[C@](C#N)(c2ccc3c(N)ncnn23)O[C@@H]1COC(=O)C(C)(C)N [Compound 11, (2R,3R,4R,5R)-5-(((2-amino-2-methylpropanoyl)oxy)methyl)-2-(4-aminopyrrolo[2,1-f][1,2,4]triazin-7-yl)-2-cyanotetrahydrofuran-3,4-diyl bis(2-methylpropanoate)]",2.6,> 100,0.387,0.301,,
"CC(C)(N)C(=O)OC[C@H]1O[C@@](C#N)(c2ccc3c(N)ncnn23)[C@H](O)[C@@H]1O [Compound 7, ((2R,3S,4R,5R)-5-(4-aminopyrrolo[2,1-f][1,2,4]triazin-7-yl)-5-cyano-3,4-dihydroxytetrahydrofuran-2-yl)methyl 2-amino-2-methylpropanoate]",3.1,> 50,0.859,,,
"Cc1ccc(C(=O)OC[C@H]2O[C@@](C#N)(c3ccc4c(N)ncnn34)[C@H](O)[C@@H]2O)cc1 [Compound 23, ((2R,3S,4R,5R)-5-(4-aminopyrrolo[2,1-f][1,2,4]triazin-7-yl)-5-cyano-3,4-dihydroxytetrahydrofuran-2-yl)methyl 4-methylbenzoate]",1.09,> 10,0.197,0.249,,
"CC(C)C(=O)OC[C@H]1O[C@@](C#N)(c2ccc3c(N)ncnn23)[C@@H]2OC(c3ccccc3)O[C@@H]21 (stereo partly drawn) [Compound 5, ((3aR,4R,6R,6aR)-6-(4-aminopyrrolo[2,1-f][1,2,4]triazin-7-yl)-6-cyano-2-phenyltetrahydrofuro[3,4-d][1,3]dioxol-4-yl)methyl isobutyrate]",> 10,> 100,13.1,,,
"N#C[C@@]1(c2ccc3c(N)ncnn23)O[C@H](COC(=O)C2CCCCCC2)[C@@H](O)[C@H]1O [Compound 29, ((2R,3S,4R,5R)-5-(4-aminopyrrolo[2,1-f][1,2,4]triazin-7-yl)-5-cyano-3,4-dihydroxytetrahydrofuran-2-yl)methyl cycloheptanecarboxylate]",0.3,38,0.194,2.64,,
"CC(C)[C@H](N)C(=O)OC[C@H]1O[C@@](C#N)(c2ccc3c(N)ncnn23)[C@@H]2OC(c3ccccc3)O[C@@H]21 (stereo partly drawn) [Compound 6, ((3aR,4R,6R,6aR)-6-(4-aminopyrrolo[2,1-f][1,2,4]triazin-7-yl)-6-cyano-2-phenyltetrahydrofuro[3,4-d][1,3]dioxol-4-yl)methyl L-valinate]",> 10,> 71.2,23.6,,,
"N#C[C@@]1(c2ccc3c(N)ncnn23)O[C@H](COC(=O)C2CCCC2)[C@@H](O)[C@H]1O [Compound 28, ((2R,3S,4R,5R)-5-(4-aminopyrrolo[2,1-f][1,2,4]triazin-7-yl)-5-cyano-3,4-dihydroxytetrahydrofuran-2-yl)methyl cyclopentanecarboxylate]",0.43,40,0.268,1.8,,
"N#C[C@@]1(c2ccc3c(N)ncnn23)O[C@H](CO)[C@H]2OC(c3ccccc3)O[C@H]21 (stereo partly drawn) [Compound 4, (3aR,4R,6R,6aR)-4-(4-aminopyrrolo[2,1-f][1,2,4]triazin-7-yl)-6-(hydroxymethyl)-2-phenyltetrahydrofuro[3,4-d][1,3]dioxole-4-carbonitrile]",> 10,> 100,26.3,,,
"CCC(CC)C(=O)OC[C@H]1O[C@@](C#N)(c2ccc3c(N)ncnn23)[C@H](O)[C@@H]1O [Compound 19, ((2R,3S,4R,5R)-5-(4-aminopyrrolo[2,1-f][1,2,4]triazin-7-yl)-5-cyano-3,4-dihydroxytetrahydrofuran-2-yl)methyl 2-ethylbutanoate]",1.45,> 10,0.238,0.261,,
"CC(C)[C@H](N)C(=O)OC[C@H]1O[C@@](C#N)(c2ccc3c(N)ncnn23)[C@H](O)[C@@H]1O [Compound 8, ((2R,3S,4R,5R)-5-(4-aminopyrrolo[2,1-f][1,2,4]triazin-7-yl)-5-cyano-3,4-dihydroxytetrahydrofuran-2-yl)methyl L-valinate]",2.7,> 100,0.904,> 5,,
"N#C[C@@]1(c2ccc3c(N)ncnn23)O[C@H](CO)[C@H]2OC(=O)O[C@H]21 [Compound 13, (3aR,4R,6R,6aR)-4-(4-aminopyrrolo[2,1-f][1,2,4]triazin-7-yl)-6-(hydroxymethyl)-2-oxotetrahydrofuro[3,4-d][1,3]dioxole-4-carbonitrile]",1.3,> 50,0.506,,,
"N#C[C@@]1(c2ccc3c(N)ncnn23)O[C@H](COC(=O)Cc2ccccc2)[C@@H](O)[C@H]1O [Compound 22, ((2R,3S,4R,5R)-5-(4-aminopyrrolo[2,1-f][1,2,4]triazin-7-yl)-5-cyano-3,4-dihydroxytetrahydrofuran-2-yl)methyl 2-phenylacetate]",0.85,,0.218,0.79,> 10,
"CC(=O)OC[C@H]1O[C@@](C#N)(c2ccc3c(N)ncnn23)[C@H](O)[C@@H]1O [Compound 30, ((2R,3S,4R,5R)-5-(4-aminopyrrolo[2,1-f][1,2,4]triazin-7-yl)-5-cyano-3,4-dihydroxytetrahydrofuran-2-yl)methyl acetate]",2.32,> 50,0.643,2.37,,
"CC(C)CC(=O)OC[C@H]1O[C@@](C#N)(c2ccc3c(N)ncnn23)[C@H](O)[C@@H]1O [Compound 16, ((2R,3S,4R,5R)-5-(4-aminopyrrolo[2,1-f][1,2,4]triazin-7-yl)-5-cyano-3,4-dihydroxytetrahydrofuran-2-yl)methyl 3-methylbutanoate]",,> 10,0.216,0.575,,1.22
"CCCCCC(=O)OC[C@H]1O[C@@](C#N)(c2ccc3c(N)ncnn23)[C@H](O)[C@@H]1O [Compound 31, ((2R,3S,4R,5R)-5-(4-aminopyrrolo[2,1-f][1,2,4]triazin-7-yl)-5-cyano-3,4-dihydroxytetrahydrofuran-2-yl)methyl hexanoate]",0.32,24,0.198,2.74,,
"CC(C)(C)CC(=O)OC[C@H]1O[C@@](C#N)(c2ccc3c(N)ncnn23)[C@H](O)[C@@H]1O [Compound 21, ((2R,3S,4R,5R)-5-(4-aminopyrrolo[2,1-f][1,2,4]triazin-7-yl)-5-cyano-3,4-dihydroxytetrahydrofuran-2-yl)methyl 3,3-dimethylbutanoate]",11.4,> 10,2.28,1.85,,
"CCCC(CCC)C(=O)OC[C@H]1O[C@@](C#N)(c2ccc3c(N)ncnn23)[C@H](O)[C@@H]1O [Compound 18, ((2R,3S,4R,5R)-5-(4-aminopyrrolo[2,1-f][1,2,4]triazin-7-yl)-5-cyano-3,4-dihydroxytetrahydrofuran-2-yl)methyl 2-propylpentanoate]",,> 10,0.172,0.224,,0.94
"N#C[C@@]1(c2ccc3c(N)ncnn23)O[C@H](COC(=O)C2CC3(CCC3)C2)[C@@H](O)[C@H]1O [Compound 27, ((2R,3S,4R,5R)-5-(4-aminopyrrolo[2,1-f][1,2,4]triazin-7-yl)-5-cyano-3,4-dihydroxytetrahydrofuran-2-yl)methyl spiro[3.3]heptane-2-carboxylate]",0.56,> 10,0.243,1.49,,
"N#C[C@@]1(c2ccc3c(N)ncnn23)O[C@H](COC(=O)[C@@H](N)Cc2ccccc2)[C@@H](O)[C@H]1O [Compound 10, ((2R,3S,4R,5R)-5-(4-aminopyrrolo[2,1-f][1,2,4]triazin-7-yl)-5-cyano-3,4-dihydroxytetrahydrofuran-2-yl)methyl L-phenylalaninate]",2.2,> 100,1.2,,,
"CC(C)[C@@H](N)C(=O)OC[C@H]1O[C@@](C#N)(c2ccc3c(N)ncnn23)[C@H](O)[C@@H]1O [Compound 9, ((2R,3S,4R,5R)-5-(4-aminopyrrolo[2,1-f][1,2,4]triazin-7-yl)-5-cyano-3,4-dihydroxytetrahydrofuran-2-yl)methyl D-valinate]",2.4,> 50,0.798,,,
"N#C[C@@]1(c2ccc3c(N)ncnn23)O[C@H](COC(=O)C[C@@H](N)Cc2ccccc2)[C@@H](O)[C@H]1O [Compound 14, ((2R,3S,4R,5R)-5-(4-aminopyrrolo[2,1-f][1,2,4]triazin-7-yl)-5-cyano-3,4-dihydroxytetrahydrofuran-2-yl)methyl (S)-3-amino-4-phenylbutanoate]",2.7,> 50,0.825,,,
